Assay results published in patent publication US20240228458A1, “PYRIMIDINE DERIVATIVE HAVING PROTEIN KINASE INHIBITORY ACTIVITY, AND THERAPEUTIC PHARMACEUTICAL COMPOSITION COMPRISING SAME” (THERAPEX CO., LTD., priority 2021, published 2024).

Tests used:
Type in all cases: cell-based
[1] = system: Ba/F3 cells expressing EGFR-wt; assay: Growth inhibition (GI50) of Ba/F3 cells expressing EGFR-wt, Celltiter glo; conditions: Mus musculus, BaF3, 72 h
Method in brief: (§1)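 Ba/F3 cells carrying the given EGFR variant were seeded at 100,000 cells/ml and, 4 h later, treated with 10-point, 4-fold serial dilutions prepared from a 2 mM stock (0.5% DMSO final). After 72 h at 37 °C and 5% CO2, viable cells were quantified by CellTiter-Glo luminescence to derive GI50.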

[2] = system: parental Ba/F3 cell line; assay: Growth inhibition (GI50) of the parental Ba/F3 cell line (not introduced with EGFR variants), Celltiter glo; conditions: Mus musculus, BaF3, 72 h, parental Ba/F3 cells
Method in brief: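 Parental Ba/F3 cells (100,000 cells/ml) were treated with 10-point, 4-fold compound dilutions (0.5% DMSO; top stock 2 mM) for 72 h at 37 °C, 5% CO2. Viability was read by CellTiter-Glo; GI50 is the concentration (μM) giving 50% growth inhibition.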

[3] = system: Ba/F3 cells expressing L858R/T790M (EGFR-LT); assay: Growth inhibition (GI50) of Ba/F3 cells expressing L858R/T790M (EGFR-LT), Celltiter glo; conditions: Mus musculus, BaF3, 72 h
Method in brief: as §1

[4] = system: Ba/F3 cells expressing L858R/T790M/C797S (EGFR-LTC); assay: Growth inhibition (GI50) of Ba/F3 cells expressing L858R/T790M/C797S (EGFR-LTC), Celltiter glo; conditions: Mus musculus, BaF3, 72 h
Method in brief: as §1

[5] = system: Ba/F3 cells expressing del19/T790M/C797S (EGFR-DTC); assay: Growth inhibition (GI50) of Ba/F3 cells expressing del19/T790M/C797S (EGFR-DTC), Celltiter glo; conditions: Mus musculus, BaF3, 72 h
Method in brief: as §1

[6] = system: Ba/F3 cells expressing del19/T790M (EGFR-DT); assay: Growth inhibition (GI50) of Ba/F3 cells expressing del19/T790M (EGFR-DT), Celltiter glo; conditions: Mus musculus, BaF3, 72 h
Method in brief: as §1

SMILES | GI50 [1] [nM] | GI50 [3] [nM] | GI50 [4] [nM] | GI50 [5] [nM] | GI50 [6] [nM] | GI50 [2] [nM]
CN(C)CCCn1cc(Nc2ncc(Cl)c(Nc3cc(Cl)ccc3NS(C)(=O)=O)n2)cn1 [Example 167, N-(4-chloro-2-((5-chloro-2-((1-(3-(dimethylamino)propyl)-1H-pyrazol-4-yl)amino)pyrimidine-4-yl)amino)phenyl)methanesulfonamide] | 500 to 2000 | 2000 to 10000 | 2000 to 10000 | 100 to 500 | 2000 to 10000 | 2000 to 10000
COc1cc(N2CCC(N3CCN(C)CC3)CC2)c(C)cc1Nc1ncc(Cl)c(Nc2ccc3ncccc3c2NS(C)(=O)=O)n1 [Example 115, N-(6-((5-chloro-2-((2-methoxy-5-methyl-4-(4-(4-methylpiperazin-1-yl)piperidin-1-yl)phenyl)amino)pyrimidin-4-yl)amino)quinolin-5-yl)methanesulfonamide] | 100 to 500 | 25 to 100 | 1 to 25 | 1 to 25 | 100 to 500 | 2000 to 10000
COc1cc(N2CCC(N3CCN(C)CC3)CC2)c(C)cc1Nc1ncc(Cl)c(Nc2ccc3nccnc3c2NS(C)(=O)=O)n1 [Example 131, N-(6-((5-chloro-2-((2-methoxy-5-methyl-4-(4-(4-methylpiperazin-1-yl)piperidin-1-yl)phenyl)amino)pyrimidin-4-yl)amino)quinoxalin-5-yl)methanesulfonamide] | 100 to 500 | 25 to 100 | 1 to 25 | 25 to 100 | 1 to 25 | 500 to 2000
Cc1cc(Nc2ncc(Cl)c(Nc3cc4c(cc3NS(C)(=O)=O)CCO4)n2)c(Cl)cc1N1CCC(N2CCN(C)CC2)CC1 [Example 173, N-(6-((5-chloro-2-((2-chloro-5-methyl-4-(4-(4-methylpiperazin-1-yl)piperidin-1-yl)phenyl)amino)pyrimidin-4-yl)amino)-2,3-dihydrobenzofuran-5-yl)methanesulfonamide] | 100 to 500 | 1 to 25 | 25 to 100 | 25 to 100 | 1 to 25 | 100 to 500
Cc1cc(Nc2ncc(Cl)c(Nc3cc4c(cc3NS(C)(=O)=O)CCO4)n2)c(Cl)cc1N1CCC(N2CCCN(C)CC2)CC1 [Example 172, N-(6-((5-chloro-2-((2-chloro-5-methyl-4-(4-(4-methyl-1,4-diazepan-1-yl)piperidin-1-yl)phenyl)amino)pyrimidin-4-yl)amino)-2,3-dihydrobenzofuran-5-yl)methanesulfonamide] | 100 to 500 | 1 to 25 | 1 to 25 | 1 to 25 | 25 to 100 | 100 to 500
CC(=O)Nc1ccccc1Nc1nc(Nc2cnc(N3CCC(N4CCN(C)CC4)CC3)c(F)c2)ncc1Cl [Example 70, N-(2-((5-chloro-2-((5-fluoro-6-(4-(4-methylpiperazin-1-yl)piperidin-1-yl)pyridin-3-yl)-amino)pyrimidin-4-yl)amino)phenyl)acetamide] | 100 to 500 | 25 to 100 | 25 to 100 | 25 to 100 | 25 to 100 | 500 to 2000
COc1cc(N2CCC(N3CCNCC3)CC2)c(C)cc1Nc1ncc(Br)c(Nc2cc(Cl)ccc2NS(C)(=O)=O)n1 [Example 94, N-(2-((5-bromo-2-((2-methoxy-5-methyl-4-(4-(piperazin-1-yl)piperidin-1-yl)phenyl)amino)pyrimidin-4-yl)amino)-4-chlorophenyl)methanesulfonamide] | 25 to 100 | 1 to 25 | 1 to 25 | 1 to 25 | 1 to 25 | 500 to 2000
COc1cc(N2CCC(N3CCCN(C)CC3)CC2)c(C)cc1Nc1ncc(Br)c(Nc2cc(Cl)ccc2NS(C)(=O)=O)n1 [Example 89] | 100 to 500 | 1 to 25 | 1 to 25 | 1 to 25 | 25 to 100 | 500 to 2000

The next lines start with results.

GI50 [1] [nM] | GI50 [3] [nM] | GI50 [4] [nM] | GI50 [5] [nM] | GI50 [6] [nM] | SMILES | GI50 [2] [nM]
100 to 500 | 25 to 100 | 1 to 25 | 1 to 25 | 25 to 100 | COc1cc(N2CCC(N3CCN(C)CC3)CC2)c(C)cc1Nc1ncc(Cl)c(Nc2cc(Cl)c(F)cc2NS(C)(=O)=O)n1 [Example 176, N-(4-chloro-2-((5-chloro-2-((2-methoxy-5-methyl-4-(4-(4-methylpiperazin-1-yl)piperidin-1-yl)phenyl)amino)pyrimidin-4-yl)amino)-5-fluorophenyl)methanesulfonamide] | 500 to 2000
500 to 2000 | 25 to 100 | 100 to 500 | 1 to 25 | 25 to 100 | CN1CCN(C2CCN(c3cc(Cl)c(Nc4ncc(Cl)c(Nc5cc6c(cc5N(C)S(C)(=O)=O)CCO6)n4)cc3Cl)CC2)CC1 [Example 259, N-(6-((5-chloro-2-((2,5-dichloro-4-(4-(4-methylpiperazin-1-yl)piperidin-1-yl)phenyl)amino)pyrimidin-4-yl)amino)-2,3-dihydrobenzofuran-5-yl)-N-methylmethanesulfonamide] | 500 to 2000
100 to 500 | 1 to 25 | 25 to 100 | 1 to 25 | 1 to 25 | COc1cc(N2CCC(N3CCCC(N(C)C)C3)CC2)c(Cl)cc1Nc1ncc(Cl)c(Nc2cc3c(cc2NS(C)(=O)=O)CCO3)n1 (stereo not drawn) [Example 219, N-(6-((5-chloro-2-((5-chloro-4-(3-(dimethylamino)-[1,4′-bipiperidin]-1′-yl)-2-methoxyphenyl)amino)pyrimidin-4-yl)amino)-2,3-dihydrobenzofuran-5-yl)methanesulfonamide] | 2000 to 10000
100 to 500 | 1 to 25 | 1 to 25 | 25 to 100 | 1 to 25 | COc1cc(N2CCC(N3CCN(C)CC3)CC2)c(Cl)cc1Nc1ncc(Cl)c(Nc2cc3c(cc2N(C)S(C)(=O)=O)CCO3)n1 [Example 249, N-(6-((5-chloro-2-((5-chloro-2-methoxy-4-(4-(4-methylpiperazin-1-yl)piperidin-1-yl)phenyl)amino)pyrimidin-4-yl)amino)-2,3-dihydrobenzofuran-5-yl)-N-methylmethanesulfonamide] | 2000 to 10000
2000 to 10000 | 500 to 2000 | 2000 to 10000 | 2000 to 10000 | 100 to 500 | COc1cc(N2CCC(N3CCN(C)CC3)CC2)ccc1Nc1ncc(Cl)c(Nc2ccc3c(c2)NCC3)n1 [Example 279] | 2000 to 10000
100 to 500 | 1 to 25 | 1 to 25 | 25 to 100 | 1 to 25 | COc1cc(N2CCC(N3CCN(C)CC3)CC2)c(C)cc1Nc1ncc(Cl)c(Nc2cc3c(cc2N(C)S(C)(=O)=O)CCO3)n1 [Example 248, N-(6-((5-chloro-2-((2-methoxy-5-methyl-4-(4-(4-methylpiperazin-1-yl)piperidin-1-yl)phenyl)amino)pyrimidin-4-yl)amino)-2,3-dihydrobenzofuran-5-yl)-N-methylmethanesulfonamide] | 2000 to 10000
25 to 100 | 500 to 2000 | 500 to 2000 | 2000 to 10000 | 500 to 2000 | Cc1cc(Nc2ncc(Cl)c(Nc3ccc4c(c3)N(C)CC4)n2)c(Cl)cc1N1CCC(N2CCN(C)CC2)CC1 [Example 274] | 500 to 2000
25 to 100 | 1 to 25 | 1 to 25 | 25 to 100 | 1 to 25 | COc1cc(N2CCC(N3CCN(C)CC3)CC2)c(Cl)cc1Nc1ncc(Br)c(Nc2cc3c(cc2N(C)S(C)(=O)=O)CCO3)n1 [Example 252, N-(6-((5-bromo-2-((5-chloro-2-methoxy-4-(4-(4-methylpiperazin-1-yl)piperidin-1-yl)phenyl)amino)pyrimidin-4-yl)amino)-2,3-dihydrobenzofuran-5-yl)-N-methylmethanesulfonamide] | 2000 to 10000
25 to 100 | 1 to 25 | 25 to 100 | 1 to 25 | 1 to 25 | COc1cc(N2CCC(N3CCCC(N(C)C)C3)CC2)c(Cl)cc1Nc1ncc(Br)c(Nc2cc3c(cc2NS(C)(=O)=O)CCO3)n1 (stereo not drawn) [Example 216, N-(6-((5-bromo-2-((5-chloro-4-(3-(dimethylamino)-[1,4′-bipiperidin]-1′-yl)-2-methoxyphenyl)amino)pyrimidin-4-yl)amino)-2,3-dihydrobenzofuran-5-yl)methanesulfonamide] | 2000 to 10000
> 10000 | 2000 to 10000 | > 10000 | 2000 to 10000 | > 10000 | COc1cc(N2CCC(N3CCN(C)CC3)CC2)c(Cl)cc1Nc1ncc(Cl)c(Nc2ccc3c(c2)NCC3)n1 [Example 278] | 2000 to 10000
100 to 500 | 1 to 25 | 1 to 25 | 25 to 100 | 1 to 25 | COc1cc(N2CCC(N3CCN(C4CC4)CC3)CC2)c(C)cc1Nc1ncc(Br)c(Nc2cc3c(cc2NS(C)(=O)=O)CCO3)n1 [Example 212, N-(6-((5-bromo-2-((4-(4-(4-cyclopropylpiperazin-1-yl)piperidin-1-yl)-2-methoxy-5-methylphenyl)amino)pyrimidin-4-yl)amino)-2,3-dihydrobenzofuran-5-yl)methanesulfonamide] | 2000 to 10000
